Columns and labels:
[1] = tested on: rat insulinoma cells (INS1E cells); assay: In vitro insulin secretion assay in INS1E cells; format: cell-based; settings: for enhancement of glucose-dependent insulin release caused by GLP-1 / direct activation of glucose-activated insulin secretion: rat insulinoma cells; for enhancement of glucose-dependent insulin release caused by GLP-1: GLP-1 10 nM, FIG. 3; for direct activation of glucose-activated insulin secretion: compound alone, FIG. 2
Experimental: The insulin secretion studies were performed in INS1E cells cultured in RPMI 1640 medium (Invitrogen, Switzerland) containing 11 mM glucose. The culture medium was supplemented with 10 mM Hepes (pH 7.3), 10% (v/v) heat-inactivated fetal bovine serum (Brunschwig AG, Switzerland), […] b-mercaptoethanol, 1 mM sodium pyruvate, […] penicillin and […] streptomycin (INS medium). Static secretion studies were performed in culture plates with a diameter of 2.5 cm in which the cells were grown until reaching confluence criteria. The in vitro studies allowed identifying compounds with intrinsic capacity to release insulin (FIG. 2) or which enhance the incretin actions of GLP-1 (FIGS. 3, 4 and 5).

[2] = Parenteral glucose overload assay; format: in vivo, male Wistar rats
Experimental: All the in vivo experiments were performed using male Wistar rats with a weight of 200-450 g. The animals were housed in individual cages in a room with controlled temperature (23° C.) and humidity (50%) with a 12/12 light and dark cycle. The animals had water and food ad libitum except in specific experimental procedures. The animals were handled once a day during the two days before the experimental sessions. All the products were dissolved in a mixture of 5% DMSO, 5% Tween 60/90% saline and intraperitoneally administered. The vehicle was 0.9% sterile saline for the parenteral glucose overload.
The parenteral glucose overload assay was performed in male Wistar rats (Harlan, Barcelona) deprived of food for 18 hours. The animals received an injection of sterile saline containing glucose which was administered at the dose of 2 gr/kg in a volume of 2 ml/kg. The plasma glucose levels were measured by means of glucometers in tail blood using reactive strips of glucose oxidase, at times 0, 5, 10, 15, 30, 45, 60 and 120 minutes after the administration of glucose. The animals received an injection of the drugs under study 15 minutes before the administration of intraperitoneal glucose. After measuring the glucose, an analysis under the curve for compound and dose was performed. This analysis allows evaluating the time intensity of the hyperglycemia. […]

| SMILES | enhancement of glucose-dependent insulin release caused by GLP-1 [1] | direct activation of glucose-activated insulin secretion [1] | physiological response (glycemia) in the parenteral glucose overload test ([2]; rats deprived of food for 18 hours, glucose 2 gr/kg, compound 15 minutes before, FIG. 6) | intensity of the hyperglycemia (area under the curve of the glycemia) ([2]; rats, parenteral glucose overload test, several doses, FIG. 7) | allosteric modulation of insulin secretion stimulated by a fixed concentration of GLP-1 ([1]; insulinoma cells, 0.2 nM GLP-1, increasing compound concentration, FIG. 5) | allosteric modulation of insulin release stimulated by increasing doses of GLP-1 ([1]; insulinoma cells, compound at 0.1 nM, FIG. 4) |
| --- | --- | --- | --- | --- | --- | --- |
| O=C(CCc1ccccc1)[C@@H]1CCCN(Cc2nc(-c3ccc(C(F)(F)F)cc3)no2)C1 [Compound C1, 3-phenyl-1-[(3R)-1-[[3-[4-(trifluoromethyl)phenyl]-1,2,4-oxadiazol-5-yl]methyl]piperidin-3-yl]propan-1-one] | enhance | direct activators | – | – | – | – |
| CC(=O)NCC[C@@H]1CCCCN1Cc1nc(-c2ccc(C(F)(F)F)cc2)no1 [Compound C3, N-[2-[(2S)-1-[[3-[4-(trifluoromethyl)phenyl]-1,2,4-oxadiazol-5-yl]methyl]piperidin-2-yl]ethyl]acetamide] | enhance | – | – | – | – | – |
| NC(=O)C1CCN(Cc2nc(-c3ccc(C(F)(F)F)cc3)no2)CC1 [Compound C4, 1[[3-[4-(trifluoromethyl)phenyl]-1,2,4-oxadiazol-5-yl]methyl]piperidin-4-carboxamide] | enhance | direct activators | – | – | – | – |
| FC(F)(F)c1ccc(-c2noc(CN3CCCC[C@H]3CCc3ccccn3)n2)cc1 [Compound C5, 5-[[(2S)-2-(2-pyridin-2-ylethyl)piperidin-1-yl]methyl]-3-[4-(trifluoromethyl)phenyl]-1,2,4-oxadiazole] | enhance | direct activators | – | – | – | – |
| FC(F)(F)c1ccc(-c2noc(CN3CCCC(CN4CCOCC4)C3)n2)cc1 (stereo not shown) [Compound C6, 4-[[1[[3-[4-(trifluoromethyl)phenyl]-1,2,4-oxadiazol-5-yl]methyl]piperidin-3-yl]methyl]morpholine] | enhance | direct activators | improves the physiological response | induces in a dose-dependent manner a reduction of the intensity of the hyperglycemia | enhances in a dose-dependent manner | enhances |
